Drawing on article PMC10535816, “May 1,2-Dithiolane-4-carboxylic Acid and Its Derivatives Serve as a Specific Thioredoxin Reductase 1 Inhibitor?” (Molecules, 2023), this text covers IC50 for three compounds.

The target in this test is T1, TrxR1 (thioredoxin reductase 1) (Rattus norvegicus, UniProt O89049).
T1 construct: gene Txnrd1
T1 sequence (O89049 1-499): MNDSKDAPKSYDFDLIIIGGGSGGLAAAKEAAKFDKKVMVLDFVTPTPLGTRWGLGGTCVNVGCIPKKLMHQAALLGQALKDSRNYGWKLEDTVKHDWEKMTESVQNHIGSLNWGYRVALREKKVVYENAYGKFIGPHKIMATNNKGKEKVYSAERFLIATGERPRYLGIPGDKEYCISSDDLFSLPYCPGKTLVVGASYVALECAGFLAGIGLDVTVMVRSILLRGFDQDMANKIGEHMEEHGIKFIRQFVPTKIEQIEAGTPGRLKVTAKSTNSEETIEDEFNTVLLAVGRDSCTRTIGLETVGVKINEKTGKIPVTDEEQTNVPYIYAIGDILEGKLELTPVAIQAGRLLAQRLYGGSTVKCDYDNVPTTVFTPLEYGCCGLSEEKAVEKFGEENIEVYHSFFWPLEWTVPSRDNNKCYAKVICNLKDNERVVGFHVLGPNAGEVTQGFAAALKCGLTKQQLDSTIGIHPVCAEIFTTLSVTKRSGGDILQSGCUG
In words: biochemical.
A word on the IC50: it is the concentration that gives 50% inhibition. `CC[C@H](C)[C@H](NC(=O)C1CSSC1)C(=O)O` [2g, 2-(1,2-Dithiolane-4-carboxamido)-3-methylpentanoic acid] showed a concentration for half-maximal inhibition (IC50) of 186 ± 14.9 µM. For `O=C(Nc1cc2ccccc2oc1=O)C1CSSC1` [2j, N-(2-Oxo-2H-chromen-3-yl)-1,2-dithiolane-4-carboxamide], it took 5.3 ± 0.4 µM to reach half-maximal inhibition (IC50). In the case of `O=C(Nc1ccc2oc(=O)ccc2c1)C1CSSC1` [2k, N-(2-oxo-2H-chromen-6-yl)-1,2-dithiolane-4-carboxamide], the concentration for half-maximal inhibition (IC50) worked out at 36.3 ± 2.9 µM.
